Experimental data published in the supplement of paper PMC8671470.
± gives the standard deviation of the averaged measurements.

Columns and labels:
Settings in all cases: 72 h
[1] = system: MV4-11; assay: cell viability (% survival relative to DMSO control, bortezomib = 0%); higher = less cytotoxic
Summary of the method: (§1)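 Fifteen myeloid leukaemia cell lines were exposed to compounds at 1, 10, 100, 1000 or 10000 nM in 384-well plates for 72 h at 37 °C and 5% CO2. Viability was read by CellTiter-Glo luminescence and normalised, with vehicle as 100% and a 10 µM positive control as 0%. Values are percent survival averaged over duplicates.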

[2] = system: K-562; assay: as above
Summary of the method: as §1

[3] = system: Mono-Mac-6; assay: as above
Summary of the method: as §1

[4] = system: SHI-1; assay: as above
Summary of the method: as §1

[5] = system: THP-1; assay: as above
Summary of the method: as §1

[6] = system: BV-173; assay: as above
Summary of the method: as §1

[7] = system: NOMO-1; assay: as above
Summary of the method: as §1

[8] = system: HEL; assay: as above
Summary of the method: as §1

[9] = system: MOLM-13; assay: as above
Summary of the method: as §1

[10] = system: ML-2; assay: as above
Summary of the method: as §1

[11] = system: HL-60; assay: as above
Summary of the method: as §1

[12] = system: KU-812; assay: as above
Summary of the method: as §1

[13] = system: LAMA-84; assay: as above
Summary of the method: as §1

[14] = system: KG-1; assay: as above
Summary of the method: as §1

[15] = system: KCL-22; assay: as above
Summary of the method: as §1

[16] = system: MV4-11
Summary of the method: (§2)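 The IC50 was read from log-logistic dose–response fits. Fifteen myeloid leukaemia lines were exposed for 72 h at 37 °C with 5% CO2 to five tenfold doses from 1 to 10,000 nM in duplicate. ATP luminescence, normalised to vehicle and to a 10 µM positive control, was fitted with four parameters.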

[17] = system: K-562
Summary of the method: as §2

[18] = system: Mono-Mac-6
Summary of the method: as §2

[19] = system: NOMO-1
Summary of the method: as §2

[20] = system: KU-812
Summary of the method: as §2

[21] = system: HL-60; assay: cell viability (% survival relative to DMSO control); higher = less cytotoxic
Summary of the method: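 HL-60 cells in RPMI 1640 with 10% FBS were rescreened against the full library on 384-well plates at five tenfold concentrations, 1–10,000 nM, in duplicate. Each screen was run with DMSO or 100 nM of one of three metabolic inhibitors, for 72 h at 37 °C, 5% CO2. Viability was read by CellTiter-Glo and normalised to DMSO and 10 μM proteasome-inhibitor wells. Where given, area under the curve came from four-parameter log-logistic fits (drc, PharmacoGx).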

Compound: Cc1cn([C@H]2C[C@H](O)[C@@H](COP(=O)(O)OP(=O)(O)O)O2)c(=O)[nH]c1=O [Thymidine diphosphate]
- cell viability ([1]; 1 nM): 95.7%
- cell viability ([1]; 10 nM): 87.8%
- cell viability ([1]; 100 nM): 98.6%
- cell viability ([1]; 1000 nM): 102%
- cell viability ([1]; 10000 nM): 96.4%
- cell viability ([2]; 1 nM): 104%
- cell viability ([2]; 10 nM): 91.1%
- cell viability ([2]; 100 nM): 105%
- cell viability ([2]; 1000 nM): 100%
- cell viability ([2]; 10000 nM): 99.6%
- cell viability ([3]; 1 nM): 95.1%
- cell viability ([3]; 10 nM): 88.1%
- cell viability ([3]; 100 nM): 105%
- cell viability ([3]; 1000 nM): 91.8%
- cell viability ([3]; 10000 nM): 92.5%
- cell viability ([4]; 1 nM): 96.2%
- cell viability ([4]; 10 nM): 89.3%
- cell viability ([4]; 100 nM): 110%
- cell viability ([4]; 1000 nM): 91.8%
- cell viability ([4]; 10000 nM): 107%
- cell viability ([5]; 1 nM): 99%
- cell viability ([5]; 10 nM): 92.5%
- cell viability ([5]; 100 nM): 95.8%
- cell viability ([5]; 1000 nM): 95.7%
- cell viability ([5]; 10000 nM): 99.3%
- cell viability ([6]; 1 nM): 92.3%
- cell viability ([6]; 10 nM): 83.5%
- cell viability ([6]; 100 nM): 98.2%
- cell viability ([6]; 1000 nM): 78%
- cell viability ([6]; 10000 nM): 39%
- cell viability ([7]; 1 nM): 98.1%
- cell viability ([7]; 10 nM): 99.8%
- cell viability ([7]; 100 nM): 100%
- cell viability ([7]; 1000 nM): 98.6%
- cell viability ([7]; 10000 nM): 95.8%
- cell viability ([8]; 1 nM): 99.1%
- cell viability ([8]; 10 nM): 89.4%
- cell viability ([8]; 100 nM): 93.2%
- cell viability ([8]; 1000 nM): 106%
- cell viability ([8]; 10000 nM): 103%
- cell viability ([9]; 1 nM): 108%
- cell viability ([9]; 10 nM): 92.1%
- cell viability ([9]; 100 nM): 110%
- cell viability ([9]; 1000 nM): 105%
- cell viability ([9]; 10000 nM): 103%
- cell viability ([10]; 1 nM): 95.6%
- cell viability ([10]; 10 nM): 87.9%
- cell viability ([10]; 100 nM): 95.5%
- cell viability ([10]; 1000 nM): 96.4%
- cell viability ([10]; 10000 nM): 106%
- cell viability ([11]; 1 nM): 88.6%
- cell viability ([11]; 10 nM): 85.2%
- cell viability ([11]; 100 nM): 87.7%
- cell viability ([11]; 1000 nM): 109%
- cell viability ([11]; 10000 nM): 104%
- cell viability ([12]; 1 nM): 88.2%
- cell viability ([12]; 10 nM): 93.6%
- cell viability ([12]; 100 nM): 109%
- cell viability ([12]; 1000 nM): 96.9%
- cell viability ([12]; 10000 nM): 102%
- cell viability ([13]; 1 nM): 97.1%
- cell viability ([13]; 10 nM): 97.9%
- cell viability ([13]; 100 nM): 106%
- cell viability ([13]; 1000 nM): 94.5%
- cell viability ([13]; 10000 nM): 86.7%
- cell viability ([14]; 1 nM): 101%
- cell viability ([14]; 10 nM): 95.2%
- cell viability ([14]; 100 nM): 97.5%
- cell viability ([14]; 1000 nM): 95.6%
- cell viability ([14]; 10000 nM): 104%
- cell viability ([15]; 1 nM): 111%
- cell viability ([15]; 10 nM): 89.8%
- cell viability ([15]; 100 nM): 98.3%
- cell viability ([15]; 1000 nM): 97.7%
- cell viability ([15]; 10000 nM): 85.6%
- IC50 (cell viability) [16]: > 10 µM
- IC50 (cell viability) [17]: > 10 µM
- IC50 (cell viability) [18]: > 10 µM
- IC50 (cell viability) [19]: > 10 µM
- IC50 (cell viability) [20]: > 10 µM
- cell viability ([21]; 0.001 µM, co-treatment: AZD3965 100 nM): 97.44 ± 0.59%
- cell viability ([21]; 0.001 µM, co-treatment: DMSO vehicle): 101 ± 1.5%
- cell viability ([21]; 0.001 µM, co-treatment: GSK2194069 100 nM): 104.9 ± 0.34%
- cell viability ([21]; 0.001 µM, co-treatment: pictilisib 100 nM): 105 ± 1.4%
- cell viability ([21]; 0.01 µM, co-treatment: AZD3965 100 nM): 97.9 ± 1%
- cell viability ([21]; 0.01 µM, co-treatment: DMSO vehicle): 100.1 ± 0.28%
- cell viability ([21]; 0.01 µM, co-treatment: GSK2194069 100 nM): 75.9 ± 32%
- cell viability ([21]; 0.01 µM, co-treatment: pictilisib 100 nM): 94 ± 2.1%
- cell viability ([21]; 0.1 µM, co-treatment: AZD3965 100 nM): 101 ± 0.85%
- cell viability ([21]; 0.1 µM, co-treatment: DMSO vehicle): 97.7 ± 1.8%
- cell viability ([21]; 0.1 µM, co-treatment: GSK2194069 100 nM): 97.8 ± 6%
- cell viability ([21]; 0.1 µM, co-treatment: pictilisib 100 nM): 106 ± 2.9%
- cell viability ([21]; 1 µM, co-treatment: AZD3965 100 nM): 102 ± 2.8%
- cell viability ([21]; 1 µM, co-treatment: DMSO vehicle): 101 ± 2.7%
- cell viability ([21]; 1 µM, co-treatment: GSK2194069 100 nM): 104 ± 6.7%
- cell viability ([21]; 1 µM, co-treatment: pictilisib 100 nM): 111 ± 1.5%
- cell viability ([21]; 10 µM, co-treatment: AZD3965 100 nM): 98.5 ± 4.8%
- cell viability ([21]; 10 µM, co-treatment: DMSO vehicle): 95.1 ± 5.3%
- cell viability ([21]; 10 µM, co-treatment: GSK2194069 100 nM): 95.3 ± 9.4%
- cell viability ([21]; 10 µM, co-treatment: pictilisib 100 nM): 89.1 ± 5.6%
